Source: publication PMC2800117, “The hemolytic and cytolytic activities of Serratia marcescens phospholipase A (PhlA) depend on lysophospholipid production by PhlA” (BMC Microbiology, 2009)

Target: T1, Phospholipase A2 derived from bovine pancreas (PLA2) (Bos taurus, UniProt P00593)
T1 construct: gene PLA2G1B; commercial native enzyme from bovine pancreas (Sigma)
Experiment: fluorescence enhancement (BODIPY FL release, […] nm)
Format: biochemical
Conditions: 10 mM Tris-HCl pH 8.0, 100 mM NaCl, 10 mM CaCl2, 45 nM substrate, 6 min; labelled compound; enzyme used as control

T1 sequence (P00593 23-145): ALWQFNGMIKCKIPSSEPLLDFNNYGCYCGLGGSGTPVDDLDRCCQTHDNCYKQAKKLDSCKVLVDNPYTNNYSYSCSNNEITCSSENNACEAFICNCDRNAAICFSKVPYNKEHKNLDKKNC

CC1=CC(C)=[N+]2C1=Cc1ccc(CCCCCCCCCCC(=O)OC[C@H](COP(=O)([O-])OCC[N+](C)(C)C)OC(=O)CCCCCCCCCCc3ccc4n3[B-](F)(F)[N+]3=C(C)C=C(C)C3=C4)n1[B-]2(F)F [bis-BODIPY FL C11-PC]
fluorescence enhancement (BODIPY FL release, 485/530 nm): S. marcescens PhlA and bovine pancreatic PLA2 released fluorescent fatty acids from bis-BODIPY FLC11-PC
